This note sets out measurements from patent publication US20160168140A1, “HETEROCYCLIC COMPOUNDS AS ANTIBIOTIC POTENTIATORS” (priority 2014, published 2016).

The first experiment has as its system Acinetobacter baumannii (Ab23). Kind of experiment: MIC shift assay of antibiotics (broth microdilution). Particulars: compound concentration 2 μM; fold shift of colistin MIC; nc = no changeover or no shift. It is filed as cell-based. Put shortly:
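Broth microdilution MIC shift assay against Acinetobacter baumannii. Overnight cultures in cation-adjusted Mueller Hinton broth at 37° C. were sub-cultured 1:200, grown to OD600=0.5 to 0.8, diluted to OD600=0.01, and added (50 μL) to wells holding 50 μL of 2× antibiotic stocks for a starting OD600 of 0.005. After 18 to 20 h at 37° C. with shaking, OD600 was read to obtain MICs.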
Background: Broth dilution looks for growth in wells or tubes with falling amounts of substance.
For the compound `CC(C)(c1c[nH]c2cc(Cl)c(Cl)cc12)c1c[nH]c2cc(Cl)c(Cl)cc12` [compound 440], the “colistin MIC shift, Ab23 at (compd concentration)” value (“colistin MIC shift, Ab23” below) is “≧16x”.

As to `Cc1cccc2c(NCCCN(C)C)nc(-c3cc(-c4ccccc4F)cc(C(F)(F)F)c3)nc12` [compound 341], the “colistin MIC shift, Ab23” value was 8-16x.

Regarding `FC(F)(F)c1cccc(-c2c[nH]c3ccc(Cl)cc23)c1` [compound 430], the “colistin MIC shift, Ab23” value was determined as 16x.

`CN(C)CCCNc1nc(-c2cc(-c3ccccc3)cc(C(F)(F)F)c2)nc2c(Cl)cccc12` [compound 340]: the “colistin MIC shift, Ab23” value is 8-16x.

`Cc1cccc2c(NCCCN(C)C)nc(-c3cc(-c4cncs4)cc(C(F)(F)F)c3)nc12` [compound 346]: the “colistin MIC shift, Ab23” value was 8-16x.

Still in this experiment, the particulars now being: compound concentration 4 μM; fold shift of colistin MIC; nc = no changeover or no shift.
For `Cc1cccc2c(NCCCN)nc(-c3cc(-c4ccccc4Cl)cc(C(F)(F)F)c3)nc12` [524m], the “colistin MIC shift, Ab23” value came out at 128x.

In the case of `CN(C)CCCNc1nc(-c2cn(Cc3ccccc3)c3c(Cl)cccc23)nc2c(F)cccc12` [compound 565], the “colistin MIC shift, Ab23” value was 2-4x.

On to `CCN(CC)CCCC(C)Nc1nc(-c2cccc(-c3ccccc3)c2)nc2cc(C(F)(F)F)ccc12` (stereo not drawn) [compound 479], for which the “colistin MIC shift, Ab23” value turned out to be 8x.

Regarding `CCN(CC)CCCC(C)Nc1nc(-c2cn(Cc3ccc(Cl)cc3)c3c(Cl)cccc23)nc2c(C)cccc12` (racemic) [compound 576], the “colistin MIC shift, Ab23” value was determined as 8x.

With `CN(C)CCCNc1nc(-c2cccc(-c3cc(C(F)(F)F)ccc3F)c2)nc2cc(C(F)(F)F)ccc12` [compound 482], the “colistin MIC shift, Ab23” value came out at 32x.

With `Cc1cccc2c(NCCCN(C)C)nc(-c3cc(-c4cccnc4)cc(C(F)(F)F)c3)nc12` [compound 510], the “colistin MIC shift, Ab23” value is 16x.

`CN(C)CCCNc1nc(-c2cccc(-c3cccc(Cl)c3Cl)c2)nc2c(Cl)cccc12` [compound 490]: the “colistin MIC shift, Ab23” value is given as 16x.

Consider `CN(C)CCCNc1nc(/C=C/c2ccc(F)c(F)c2)nc2c(C(F)(F)F)cccc12` [compound 330], for which the “colistin MIC shift, Ab23” value is recorded as 2x.

Turning to `Cc1cc(Br)cc2c(NCCCN(C)C)nc(-c3cc(Br)cc(C(F)(F)F)c3)nc12` [524g], the “colistin MIC shift, Ab23” value was 16x.

For the compound `CN(C)CCCNc1nc(-c2cn(Cc3ccccc3)c3c(Cl)cccc23)nc2c(Cl)cccc12` [compound 567], the “colistin MIC shift, Ab23” value is 16x.

Consider `CCN(CC)CCCC(C)Nc1nc(/C=C/c2ccc3ccccc3c2)nc2cc(Cl)ccc12` (racemic) [compound 305], for which the “colistin MIC shift, Ab23” value came out at 4x.

With `CCN(CC)CCCC(C)Nc1nc(/C=C/c2ccc(Cl)c(Cl)c2)nc2cc(C(F)(F)F)ccc12` (racemic) [compound 315], the “colistin MIC shift, Ab23” value is 4-8x.

As to `Fc1ccc2c(/C=C/c3cc(C(F)(F)F)cc(C(F)(F)F)c3)c[nH]c2c1` [compound 386], the “colistin MIC shift, Ab23” value was 16x.

With `Cc1cccc2c(NCCN(C)C)nc(-c3cc(-c4ccccc4)cc(C(F)(F)F)c3)nc12` [524f], the “colistin MIC shift, Ab23” value was 32x.

As for `Cc1cccc2c(NCCCN(C)C)nc(-c3cccc(-c4cccc(Cl)c4Cl)c3)nc12` [compound 484], the “colistin MIC shift, Ab23” value is recorded as 16x.

Consider `CN(C)CCCNc1nc(-c2cccc(-c3ccc(Cl)c(Cl)c3)c2)nc2c(Cl)cccc12` [compound 488], for which the “colistin MIC shift, Ab23” value is given as 32x.

Turning to `Cc1cccc2c(NCCCN)nc(-c3cccc(-c4cc(C(F)(F)F)ccc4F)c3)nc12` [491a], the “colistin MIC shift, Ab23” value turned out to be 128x.

With `CCN(CC)CCCC(C)Nc1nc(-c2cc(-c3cccc(C(F)(F)F)c3)cc(C(F)(F)F)c2)nc2c(C)cccc12` (stereo not drawn) [compound 493], the “colistin MIC shift, Ab23” value is 16x.

In the case of `CCC(N)C(=O)n1cc(/C=C/c2ccc(Cl)c(Cl)c2)c2cc(Br)ccc21` (stereo not drawn) [362d], the “colistin MIC shift, Ab23” value was 32x.

Turning to `CCN(CC)CCCC(C)Nc1nc(-c2cn(Cc3ccccc3)c3c(Cl)cccc23)nc2cc(Cl)ccc12` (racemic) [compound 584], the “colistin MIC shift, Ab23” value worked out at 8x.

As for `Cc1cccc2c(NCCCN(C)C)nc(-c3cccc(-c4ccc(C(F)(F)F)cc4F)c3)nc12` [compound 472], the “colistin MIC shift, Ab23” value is given as 16x.

As for `Cc1cccc2c(NCCCN(C)C)nc(-c3cc(-c4cncnc4)cc(C(F)(F)F)c3)nc12` [524c], the “colistin MIC shift, Ab23” value is recorded as 2x.

With `Fc1ccc2c(/C=C/c3cc(Cl)cc(Cl)c3)c[nH]c2c1` [compound 388], the “colistin MIC shift, Ab23” value was determined as 16x.

Consider `CN(C)CC(=O)n1cc(/C=C/c2ccc(Cl)c(Cl)c2)c2cc(Br)ccc21` [362e], for which the “colistin MIC shift, Ab23” value is reported as 32x.

Regarding `Fc1cc(C(F)(F)F)ccc1-c1n[nH]c2cc(C(F)(F)F)ccc12` [compound 544], the “colistin MIC shift, Ab23” value is reported as 8x.

Regarding `Cc1c(-c2ccccc2)ccc2c(NCCCN(C)C)nc(-c3cc(-c4ccccc4)cc(C(F)(F)F)c3)nc12` [524e], the “colistin MIC shift, Ab23” value was found to be 4x.

`Clc1ccc2c(-c3cccc(-c4ccccc4)c3)n[nH]c2c1` [compound 526]: the “colistin MIC shift, Ab23” value is on record as 1x.

For `CN(C)CCOC(=O)n1cc(-c2ccc(Cl)c(Cl)c2)c2cc(Cl)ccc21` [362a], the “colistin MIC shift, Ab23” value worked out at 8x.

Consider `Cc1cccc2c(NCCCN(C)C)nc(-c3cc(-c4ccc(C(F)(F)F)cc4)cc(C(F)(F)F)c3)nc12` [compound 496], for which the “colistin MIC shift, Ab23” value is 16x.

Still in this experiment, the particulars now being: compound concentration 8 μM; fold shift of colistin MIC; nc = no changeover or no shift.
With `CCN(CC)CCCC(C)Nc1nc(/C=C/c2ccc(C(F)(F)F)cc2)nc2cc(Cl)ccc12` (racemic) [compound 307], the “colistin MIC shift, Ab23” value was 4x.

As for `CN(C)CCCNc1nc(/C=C/c2ccc(Br)cc2)nc2cc(Cl)ccc12` [compound 301], the “colistin MIC shift, Ab23” value stood at 8x.

Still in this experiment, the particulars now being: compound concentration 10 μM; fold shift of colistin MIC; nc = no changeover or no shift.
Turning to `FC(F)(F)c1cccc(-c2cccc(-c3n[nH]c4cc(C(F)(F)F)ccc34)c2)c1` [compound 529], the “colistin MIC shift, Ab23” value is recorded as 8x.

Turning to `Cc1cccc2c(NCCCN(C)C)nc(-c3cn(Cc4ccccc4)c4ccc(Cl)cc34)nc12` [compound 587], the “colistin MIC shift, Ab23” value came out at 16x.

`Fc1cccc(/C=C/c2c[nH]c3cc(F)ccc23)c1` [compound 399]: the “colistin MIC shift, Ab23” value amounted to 8x.

For the compound `FC(F)(F)c1cccc(-c2cccc(-c3n[nH]c4ccc(Cl)cc34)c2)c1` [compound 525], the “colistin MIC shift, Ab23” value turned out to be 1x.

For `CCN(CC)CCCC(C)Nc1nc(/C=C/c2ccc(C(=O)OC)cc2)nc2cc(Cl)ccc12` (racemic) [compound 309], the “colistin MIC shift, Ab23” value is 4x.

As for `N#Cc1cccc(-c2n[nH]c3cc(F)ccc23)c1` [compound 538], the “colistin MIC shift, Ab23” value came out at 1x.

As for `FC(F)(F)c1cc(-c2c[nH]c3cc(Cl)c(Cl)cc23)cc(C(F)(F)F)c1` [compound 435], the “colistin MIC shift, Ab23” value is listed as 16x.

For `COc1cc(-c2n[nH]c3cc(C(F)(F)F)ccc23)cc(C(F)(F)F)c1` [compound 552], the “colistin MIC shift, Ab23” value was 8x.

`FC(F)(F)c1ccc2[nH]nc(-c3ccc(Cl)c(Cl)c3)c2c1` [compound 555]: the “colistin MIC shift, Ab23” value is 32x.
